# Assay results from patent US20040209799A1, “JAK/STAT pathway inhibitors and the uses thereof” (priority 2000, published 2004).
# Assays:
# JAK3 = molecular target: T1, JAK3 (Homo sapiens, UniProt P52333); conditions: cited from earlier work
# T1 sequence (P52333 1-1124): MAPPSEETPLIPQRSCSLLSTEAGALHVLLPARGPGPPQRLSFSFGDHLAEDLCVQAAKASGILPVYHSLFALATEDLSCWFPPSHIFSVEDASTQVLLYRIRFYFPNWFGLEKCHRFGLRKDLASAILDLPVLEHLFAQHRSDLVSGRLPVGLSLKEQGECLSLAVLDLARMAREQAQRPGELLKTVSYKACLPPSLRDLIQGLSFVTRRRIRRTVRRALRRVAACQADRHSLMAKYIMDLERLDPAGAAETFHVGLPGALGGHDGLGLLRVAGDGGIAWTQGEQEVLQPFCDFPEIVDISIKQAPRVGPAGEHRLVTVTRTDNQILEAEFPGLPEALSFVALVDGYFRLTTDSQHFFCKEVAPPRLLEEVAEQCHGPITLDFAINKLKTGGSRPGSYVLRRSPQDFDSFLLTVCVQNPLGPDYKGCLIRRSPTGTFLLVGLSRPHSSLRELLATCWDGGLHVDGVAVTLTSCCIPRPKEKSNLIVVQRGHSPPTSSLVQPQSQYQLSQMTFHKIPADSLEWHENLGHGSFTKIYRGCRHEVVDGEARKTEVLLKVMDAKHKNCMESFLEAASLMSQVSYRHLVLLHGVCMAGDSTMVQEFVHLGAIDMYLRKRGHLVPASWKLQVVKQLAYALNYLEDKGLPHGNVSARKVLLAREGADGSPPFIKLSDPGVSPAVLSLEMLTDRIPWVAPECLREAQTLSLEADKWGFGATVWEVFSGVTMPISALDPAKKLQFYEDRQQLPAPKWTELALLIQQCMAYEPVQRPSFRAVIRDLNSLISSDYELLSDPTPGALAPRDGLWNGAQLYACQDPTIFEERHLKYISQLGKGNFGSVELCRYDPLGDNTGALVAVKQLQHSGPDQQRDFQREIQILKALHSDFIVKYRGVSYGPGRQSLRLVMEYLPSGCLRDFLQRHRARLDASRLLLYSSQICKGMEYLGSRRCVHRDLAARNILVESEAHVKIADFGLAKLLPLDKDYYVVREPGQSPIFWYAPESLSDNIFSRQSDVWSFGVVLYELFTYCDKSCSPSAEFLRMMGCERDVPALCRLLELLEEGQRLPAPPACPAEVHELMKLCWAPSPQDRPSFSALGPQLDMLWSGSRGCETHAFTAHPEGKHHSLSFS
# chondrocytes = conditions: in vitro; cited from earlier work
# [1] = molecular target: LCK (Lymphoid T-cell protein tyrosine kinase) (Homo sapiens, UniProt P06239); assay: poly (Glu, Tyr) 4:1 ELISA, LCK; type: biochemical; conditions: ec-50 values ranging from hundreds of micromolar to no inhibition (data not shown)
# Chain of LCK (Lymphoid T-cell protein tyrosine kinase) (P06239 whole entry, species assumed): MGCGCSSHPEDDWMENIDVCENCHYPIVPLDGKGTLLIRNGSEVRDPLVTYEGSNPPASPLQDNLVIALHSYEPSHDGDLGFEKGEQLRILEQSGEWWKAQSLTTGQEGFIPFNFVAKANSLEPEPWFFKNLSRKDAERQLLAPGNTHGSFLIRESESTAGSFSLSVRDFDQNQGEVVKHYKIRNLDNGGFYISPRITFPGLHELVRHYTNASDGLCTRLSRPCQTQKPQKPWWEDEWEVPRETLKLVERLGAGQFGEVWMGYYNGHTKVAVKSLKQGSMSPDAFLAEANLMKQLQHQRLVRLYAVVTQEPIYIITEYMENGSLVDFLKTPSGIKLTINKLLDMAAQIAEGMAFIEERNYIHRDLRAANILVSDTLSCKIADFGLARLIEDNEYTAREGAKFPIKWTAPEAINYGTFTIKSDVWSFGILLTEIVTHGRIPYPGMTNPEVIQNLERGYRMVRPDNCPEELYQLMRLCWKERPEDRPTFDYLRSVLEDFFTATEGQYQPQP
# Procedure: (§1) To further examine the inhibition characteristics of DBH (and its variants) to a variety of cellular components, a poly (Glu, Tyr) 4:1 ELISA was performed. Hymenialdisine (H), DBH (as marine sponge extracts: see Chipman and Faulkner, 1997), and three variant forms of synthetic DBH: the free base form of DBH (DBH-2FB), a trifluoroacetic acid salt form of DBH (DBH-2S), and a methanesulfonic acid salt form of DBH (DBH 1) were solubilized in DMSO, and tested for the ability to inhibit; ZAP-70 (ζ-associated polypeptide of 70 kDa) protein tyrosine kinase, BTK (Bruton's agarnrnaglobulinaemia tyrosine kinase), JAK3 (Janus kinase 3) protein tyrosine kinase, LCK (Lymphoid T-cell protein tyrosine kinase), and IGFR (Insulin-like growth factor receptor) protein tyrosine kinase.
# (§2) Maxisorb microtiter plates (Nalge Nunc International, Rochester, N.Y.) were coated with 1 mg/ml Poly(Glu,Tyr) 4:1 (Sigma, St. Louis, Mo.) solubilized in phosphate buffered saline (PBS), 0.02% sodium azide. On the day of the assay, microtiter plates were washed 4× with TBS-Tween (25 mM Tris pH 8.0, 150 mM NaCl, 0.05% Tween 20) using a Skatron plate washer (Skatron Instruments, Sterling, Va.). 200 μl of sterile blocking buffer (3% BSA in PBS, 0.02% sodium azide) was added to each well, and the microtiter plates were incubated at 37° C. for 1 hour. The blocking buffer was removed, the plates washed, and various concentrations of inhibitor were added in a 20 μl volume to the wells. 60 μl of the appropriate substrate mix was then added. Substrate mixes were prepared as described in Table 2:
# (§3) Following addition of the substrate mix, 20 μl of the test protein tyrosine kinase (in 1× assay buffer) was added. Kinase reactions were incubated 30 min at 37° C., followed by washes in the Skatron plate washer. 100 μl of biotinylated PT-66 anti-phosphotyrosine monoclonal antibody (Sigma, St. Louis, Mo.) (diluted 1:4000 in 0.5% BSA, sterile-filtered TBS) was added to each well, and incubated for an additional 30 minutes at 37° C. […] The samples were then read at 450 nm in a plate reader.
# [2] = molecular target: T2, ZAP-70 (ζ-associated polypeptide of 70 kDa) protein tyrosine kinase (Homo sapiens, UniProt P43403); assay: poly (Glu, Tyr) 4:1 ELISA, ZAP-70; type: biochemical; conditions: ec-50 values ranging from hundreds of micromolar to no inhibition (data not shown)
# T2 sequence (P43403 1-619): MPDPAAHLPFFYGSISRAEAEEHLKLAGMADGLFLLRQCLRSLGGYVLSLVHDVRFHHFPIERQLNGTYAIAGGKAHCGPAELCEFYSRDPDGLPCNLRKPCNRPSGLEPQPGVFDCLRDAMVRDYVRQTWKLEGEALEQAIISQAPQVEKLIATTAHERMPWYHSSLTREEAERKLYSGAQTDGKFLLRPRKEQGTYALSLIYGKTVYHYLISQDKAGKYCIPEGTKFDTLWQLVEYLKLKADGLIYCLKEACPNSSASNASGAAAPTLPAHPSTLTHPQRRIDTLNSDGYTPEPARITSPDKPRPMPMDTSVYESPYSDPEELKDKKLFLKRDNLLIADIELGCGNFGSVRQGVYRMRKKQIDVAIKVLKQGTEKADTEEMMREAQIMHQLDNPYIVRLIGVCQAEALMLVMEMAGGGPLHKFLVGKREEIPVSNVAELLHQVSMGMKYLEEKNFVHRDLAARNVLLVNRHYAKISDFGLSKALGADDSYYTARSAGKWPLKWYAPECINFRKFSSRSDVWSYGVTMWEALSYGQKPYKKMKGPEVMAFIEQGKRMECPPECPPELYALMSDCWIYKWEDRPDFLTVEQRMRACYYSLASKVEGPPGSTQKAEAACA
# Procedure: as §1, §2, §3
# [3] = test system: chondrocytes in culture and explants of articular cartilage; conditions: cited from earlier work
# [4] = molecular target: IGFR (Insulin-like growth factor receptor) protein tyrosine kinase (Homo sapiens, UniProt P08069); assay: poly (Glu, Tyr) 4:1 ELISA, IGFR; type: biochemical; conditions: ec-50 values ranging from hundreds of micromolar to no inhibition (data not shown)
# Chain of IGFR (Insulin-like growth factor receptor) protein tyrosine kinase (P08069 31-1367): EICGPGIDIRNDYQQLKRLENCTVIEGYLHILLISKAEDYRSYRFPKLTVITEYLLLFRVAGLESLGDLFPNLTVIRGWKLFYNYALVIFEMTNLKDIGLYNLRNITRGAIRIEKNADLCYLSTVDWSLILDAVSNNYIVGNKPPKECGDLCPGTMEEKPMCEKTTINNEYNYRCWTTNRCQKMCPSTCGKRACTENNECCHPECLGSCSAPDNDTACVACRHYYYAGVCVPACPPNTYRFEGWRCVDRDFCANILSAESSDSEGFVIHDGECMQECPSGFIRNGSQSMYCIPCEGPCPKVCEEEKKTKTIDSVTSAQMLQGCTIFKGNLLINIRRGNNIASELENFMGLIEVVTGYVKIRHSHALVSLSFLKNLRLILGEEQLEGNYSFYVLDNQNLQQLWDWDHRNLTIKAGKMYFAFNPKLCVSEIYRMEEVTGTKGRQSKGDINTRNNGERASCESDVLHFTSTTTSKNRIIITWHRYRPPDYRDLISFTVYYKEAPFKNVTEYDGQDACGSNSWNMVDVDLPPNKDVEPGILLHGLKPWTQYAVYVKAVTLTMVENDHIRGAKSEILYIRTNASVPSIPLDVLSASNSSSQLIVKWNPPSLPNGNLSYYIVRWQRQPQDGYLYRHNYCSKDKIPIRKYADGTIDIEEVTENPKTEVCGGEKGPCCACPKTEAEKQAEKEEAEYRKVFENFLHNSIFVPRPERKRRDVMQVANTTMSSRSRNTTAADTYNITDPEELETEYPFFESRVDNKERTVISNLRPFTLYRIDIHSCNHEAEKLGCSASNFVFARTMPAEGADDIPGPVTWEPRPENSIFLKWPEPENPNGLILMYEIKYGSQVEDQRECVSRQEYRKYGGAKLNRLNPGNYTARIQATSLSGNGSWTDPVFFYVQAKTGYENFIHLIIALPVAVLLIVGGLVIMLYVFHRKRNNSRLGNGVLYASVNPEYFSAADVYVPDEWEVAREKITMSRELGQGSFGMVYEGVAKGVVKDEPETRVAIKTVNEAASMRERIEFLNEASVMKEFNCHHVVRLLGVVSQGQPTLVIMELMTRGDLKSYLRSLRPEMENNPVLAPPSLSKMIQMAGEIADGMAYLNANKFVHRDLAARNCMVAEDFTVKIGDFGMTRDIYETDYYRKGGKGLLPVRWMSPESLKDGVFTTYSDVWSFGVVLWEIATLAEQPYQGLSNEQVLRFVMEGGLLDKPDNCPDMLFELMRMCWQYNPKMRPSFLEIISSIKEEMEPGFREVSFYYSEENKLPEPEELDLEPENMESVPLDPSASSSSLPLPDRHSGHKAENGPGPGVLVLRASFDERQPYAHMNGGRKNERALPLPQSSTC
# Procedure: as §1, §2, §3
# [5] = molecular target: BTK (Bruton's agarnrnaglobulinaemia tyrosine kinase) (Homo sapiens, UniProt Q06187); assay: poly (Glu, Tyr) 4:1 ELISA, BTK; type: biochemical; conditions: ec-50 values ranging from hundreds of micromolar to no inhibition (data not shown)
# Chain of BTK (Bruton's agarnrnaglobulinaemia tyrosine kinase) (Q06187 whole entry, species assumed): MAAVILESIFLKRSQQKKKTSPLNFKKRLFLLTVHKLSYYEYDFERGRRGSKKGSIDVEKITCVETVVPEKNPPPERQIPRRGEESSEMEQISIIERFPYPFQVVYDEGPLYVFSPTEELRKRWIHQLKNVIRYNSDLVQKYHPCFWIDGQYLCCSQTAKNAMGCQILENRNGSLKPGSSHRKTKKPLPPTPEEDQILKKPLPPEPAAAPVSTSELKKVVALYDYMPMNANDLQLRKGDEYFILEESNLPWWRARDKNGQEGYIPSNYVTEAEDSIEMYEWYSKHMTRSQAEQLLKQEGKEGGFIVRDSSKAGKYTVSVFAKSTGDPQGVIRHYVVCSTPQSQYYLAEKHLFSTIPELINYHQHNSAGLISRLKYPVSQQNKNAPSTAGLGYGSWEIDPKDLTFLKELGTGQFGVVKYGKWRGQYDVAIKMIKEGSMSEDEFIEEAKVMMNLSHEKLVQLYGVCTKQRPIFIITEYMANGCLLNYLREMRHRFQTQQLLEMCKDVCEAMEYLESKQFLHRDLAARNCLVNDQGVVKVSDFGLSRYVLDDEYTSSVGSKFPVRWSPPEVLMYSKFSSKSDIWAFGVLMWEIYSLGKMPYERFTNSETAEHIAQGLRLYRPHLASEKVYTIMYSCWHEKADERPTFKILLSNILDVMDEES
# Procedure: as §1, §2, §3
# [6] = molecular target: T3, JAK3 (Janus kinase 3) protein tyrosine kinase (Homo sapiens, UniProt P52333); assay: poly (Glu, Tyr) 4:1 ELISA, JAK3; type: biochemical; conditions: inhibitors solubilized in DMSO, read-out: ec-50 (effective concentration for 50% inhibition) of JAK3
# T3 sequence (P52333 1-1124): T1 sequence (P52333 1-1124)
# Procedure: as §1, §2, §3
# JAK3 mRNA = assay: northern blot analysis of JAK3 expression in human articular chondrocytes; type: cell-based; conditions: 2 ng/ml for 24 hours, normal adult human articular chondrocytes in monolayer
# Procedure: Frozen chondrocyte cell strain HC30-0198 (normal human articular chondrocytes prepared as described in Example 1) was thawed, cultured in monolayer (second passage), and cultured to 5 days post confluence. Test cultures were rinsed in phosphate buffered saline (PBS), followed by addition of either; 1) recombinant human interleukin-1β (rhIL-1β) (R&D Systems, Minneapolis, Minn.) at 2 ng/ml for 24 hours in serum-free DMEM containing 1% antibiotic solution, or 2) serum-free DMEM containing 1% antibiotic solution only (control).
# RNA on the Northern blot was fixed to the membrane by using a Stratalinker® 1800 UV Crosslinker (Stratagene, La Jolla, Calif.).
# A 109-base pair human cDNA for JAK3 was generated by RT-PCR (see Example 2 above).
# Prehybridization and hybridization of the Northern blot was performed at 42° C. using a 1:1 dilution of 2× Prehybridization/Hybridization Solution (GIBCO/BRL, Gaithersburg, Md.) and formamide. After 15 hours of hybridization using the JAK3 DNA probe, the blot was successively washed two times in 2×SSC/0.1% SDS (15 minutes/wash at room temperature), and two times in 0.5×SSC/0.1% SDS (30 minutes/wash at 65° C.). The blot was allowed to air dry, and the radioactive signal was visualized using a Fujifilm BAS-1500 phosphorimager (Fuji Medical Systems, USA, Stamford, C1).
compound,measurement,setting,value
"COc1cc(C(N)=O)c([N+](=O)[O-])cc1OC [4,5-dimethoxy-2-nitrobenzamide]",inhibition of JAK3,JAK3,specifically inhibit
"COc1cc(C(=O)O)c([N+](=O)[O-])cc1OC [4,5-dimethoxy-2-nitrobenzoic acid]",inhibition of JAK3,JAK3,specifically inhibit
"O=C1NC(=O)c2cc(Nc3ccccc3)c(Nc3ccccc3)cc21 [DAPH, 4,5-dianilinophthalimide]",effect on cartilage degradation by chondrocytes,chondrocytes,reduce or prevent
"NC1=NC(=O)C(=C2CCNC(=O)c3[nH]c(Br)cc32)N1 [H, 4-(2-amino-4-oxo-2-imidazolin-5-ylidene)-2-bromo-4,5,6,7-tetrahydropyrrolo (2,3-c) azepine-8-one]",Inhibition of LCK,[1],weak
same,Inhibition of ZAP-70,[2],weak
same,inhibition of IL-1 induced degradation of glycosaminoglycan and extracellular matrix,[3],inhibit
same,Inhibition of IGFR,[4],weak
same,Inhibition of BTK,[5],weak
same,EC50,[6],2.6 to 10.7 µM
O=c1c(-c2ccc(O)cc2)coc2cc(O)cc(O)c12 [genistein],effect on cartilage degradation by chondrocytes,chondrocytes,reduce or prevent
CO[C@H]1[C@@H](OC)C[C@H](C)[C@@H](OC)C2=CC(=O)C=C(NC(=O)/C(C)=C/C=C\[C@H](OC)[C@@H](OC(N)=O)/C(C)=C/[C@@H]1C)C2=O [herbimycin A],effect on cartilage degradation by chondrocytes,chondrocytes,reduce or prevent
N#CC(C#N)=Cc1cc(O)c(O)c(O)c1 [tyrphostin AG 82],effect on cartilage degradation by chondrocytes,chondrocytes,reduce or prevent
N#C/C(=C\c1ccc(O)c(O)c1)C(=O)NCCCCc1ccccc1 [tyrphostin AG 556],effect on cartilage degradation by chondrocytes,chondrocytes,reduce or prevent
rhIL-1β: recombinant human interleukin-1β (R&D Systems),effect on the level of JAK3 mRNA,JAK3 mRNA,neither increases nor decreases
